{
  "source": "patent US6413542B1",
  "about": "“Direct pour-on antiparasitic skin solution and methods for treating, preventing and controlling myasis” (Merial, priority 1996, dated 2002)",
  "key": {"[1]": {"experiment": "Solubility of compound A in the solvent acetyl tributyl citrate", "type": "physicochemical", "from_the_text": "The solvent will be used in proportion with the concentration of the compound I and its solubility in this solvent.\nIt will be sought to have the lowest possible volume."}, "[2]": {"tested_on": "Boophilus microplus", "experiment": "Example 2: efficacy of pour-on skin solutions against Boophilus microplus on artificially infested cattle (tick counts)", "type": "in vivo", "conditions": "skin solution containing 1% compound A, 1 ml per 10 kg along the line of the back", "protocol": "Study of the efficacy of skin solutions according to the invention containing, respectively, 0.25, 0.50 and 1% compound A to combat Boophilus microplus.\nThe study was performed on 16 young male castrated Herefords (weight ranging between 114 and 172 kg).\nThree skin solutions according to Example 1 were prepared:\nA placebo was prepared, which differed from the skin solutions according to the invention in that it contained no compound A.\nIn the studies, 1 ml of skin solution or of placebo were used per 10 kg of animal weight.\nThe dose volume was applied along the line of the animal's back, from the head to the base of the tail.\nBetween days-24 and -1, the animals were artificially infested on 11 occasions with 2,500 Boophilus microplus larvae. The aim of 24-day infestation is to ensure that all of the stages of Boophilus microplus are present on the animal (eggs, larvae, adults).\nOn day 0, the animals receive one of the skin solutions or the placebo.\nBefore the skin solutions or the placebo are applied, the number of ticks present on the various animals in the different groups are counted.\nThe blood-engorged female ticks which become detached are included in the count."}, "[3]": {"tested_on": "Boophilus microplus", "experiment": "Example 4: efficacy over time of skin solutions on cattle re-infested with larvae for 13 weeks", "type": "in vivo", "parameters": "Efficacy index: scale not given here", "from_the_text": "Study of efficacy over time.\nSkin solutions according to the invention containing 0.25, 0.5 or 1% compound A where used in this example.\nThe composition of these solutions is the same as for the above examples.\nThe cattle were preinfested so as to have all of the stages of Boophilus microplus present (infestation with 5,000 larvae, 22 days, 15 days and 8 days before application of the skin solution).\nAfter application of the skin solutions, the cattle are again infested with the larvae for 13 weeks, to determine the efficacy of the three concentrations."}},
  "data": [
    {"smiles": "N#Cc1nn(-c2c(Cl)cc(C(F)(F)F)cc2Cl)c(N)c1[S+]([O-])C(F)(F)F", "note": "(stereo not drawn) [compound A, 1-[2,6-Cl2 4-CF3phenyl]3-CN 4-[SO-CF3]5-NH2pyrazole]", "values": [
      {"measurement": "solubility", "setting": "[1]", "value": 4.3, "unit": "% m/V"},
      {"measurement": "efficacy", "setting": "[2]", "value": 100, "unit": "%"},
      {"measurement": "Efficacy index", "setting": "[3]; 0.25% solution, week 1 of infestation after treatment", "value": 97.6},
      {"measurement": "Efficacy index", "setting": "[3]; 0.25% solution, week 2 of infestation after treatment", "value": 98.8},
      {"measurement": "Efficacy index", "setting": "[3]; 0.25% solution, week 3 of infestation after treatment", "value": 99.7},
      {"measurement": "Efficacy index", "setting": "[3]; 0.25% solution, week 4 of infestation after treatment", "value": 99.3},
      {"measurement": "Efficacy index", "setting": "[3]; 0.25% solution, week 5 of infestation after treatment", "value": 96.7},
      {"measurement": "Efficacy index", "setting": "[3]; 0.25% solution, week 6 of infestation after treatment", "value": 98.6},
      {"measurement": "Efficacy index", "setting": "[3]; 0.25% solution, week 7 of infestation after treatment", "value": 92.4},
      {"measurement": "Efficacy index", "setting": "[3]; 0.25% solution, week 8 of infestation after treatment", "value": 85.8},
      {"measurement": "Efficacy index", "setting": "[3]; 0.25% solution, week 9 of infestation after treatment", "value": 28.0},
      {"measurement": "Efficacy index", "setting": "[3]; 0.25% solution, week 10 of infestation after treatment", "value": 23.0},
      {"measurement": "Efficacy index", "setting": "[3]; 0.25% solution, week 11 of infestation after treatment", "value": 18.9},
      {"measurement": "Efficacy index", "setting": "[3]; 0.25% solution, week 12 of infestation after treatment", "value": 1.7},
      {"measurement": "Efficacy index", "setting": "[3]; 0.25% solution, week 13 of infestation after treatment", "value": 8.4},
      {"measurement": "Efficacy index", "setting": "[3]; 0.5% solution, week 1 of infestation after treatment", "value": 100},
      {"measurement": "Efficacy index", "setting": "[3]; 0.5% solution, week 2 of infestation after treatment", "value": 100},
      {"measurement": "Efficacy index", "setting": "[3]; 0.5% solution, week 3 of infestation after treatment", "value": 100},
      {"measurement": "Efficacy index", "setting": "[3]; 0.5% solution, week 4 of infestation after treatment", "value": 100},
      {"measurement": "Efficacy index", "setting": "[3]; 0.5% solution, week 5 of infestation after treatment", "value": 92.9},
      {"measurement": "Efficacy index", "setting": "[3]; 0.5% solution, week 6 of infestation after treatment", "value": 93.2},
      {"measurement": "Efficacy index", "setting": "[3]; 0.5% solution, week 7 of infestation after treatment", "value": 88.6},
      {"measurement": "Efficacy index", "setting": "[3]; 0.5% solution, week 8 of infestation after treatment", "value": 83.4},
      {"measurement": "Efficacy index", "setting": "[3]; 0.5% solution, week 9 of infestation after treatment", "value": 37.9},
      {"measurement": "Efficacy index", "setting": "[3]; 0.5% solution, week 10 of infestation after treatment", "value": 41.4},
      {"measurement": "Efficacy index", "setting": "[3]; 0.5% solution, week 11 of infestation after treatment", "value": 55.2},
      {"measurement": "Efficacy index", "setting": "[3]; 0.5% solution, week 12 of infestation after treatment", "value": 37.3},
      {"measurement": "Efficacy index", "setting": "[3]; 0.5% solution, week 13 of infestation after treatment", "value": 48.5},
      {"measurement": "Efficacy index", "setting": "[3]; 1.0% solution, week 1 of infestation after treatment", "value": 100},
      {"measurement": "Efficacy index", "setting": "[3]; 1.0% solution, week 2 of infestation after treatment", "value": 100},
      {"measurement": "Efficacy index", "setting": "[3]; 1.0% solution, week 3 of infestation after treatment", "value": 100},
      {"measurement": "Efficacy index", "setting": "[3]; 1.0% solution, week 4 of infestation after treatment", "value": 100},
      {"measurement": "Efficacy index", "setting": "[3]; 1.0% solution, week 5 of infestation after treatment", "value": 100},
      {"measurement": "Efficacy index", "setting": "[3]; 1.0% solution, week 6 of infestation after treatment", "value": 100},
      {"measurement": "Efficacy index", "setting": "[3]; 1.0% solution, week 7 of infestation after treatment", "value": 99.7},
      {"measurement": "Efficacy index", "setting": "[3]; 1.0% solution, week 8 of infestation after treatment", "value": 100},
      {"measurement": "Efficacy index", "setting": "[3]; 1.0% solution, week 9 of infestation after treatment", "value": 79.8},
      {"measurement": "Efficacy index", "setting": "[3]; 1.0% solution, week 10 of infestation after treatment", "value": 65.3},
      {"measurement": "Efficacy index", "setting": "[3]; 1.0% solution, week 11 of infestation after treatment", "value": 61.5},
      {"measurement": "Efficacy index", "setting": "[3]; 1.0% solution, week 12 of infestation after treatment", "value": 32.2},
      {"measurement": "Efficacy index", "setting": "[3]; 1.0% solution, week 13 of infestation after treatment", "value": 46.4},
      {"measurement": "period of efficacy against Boophilus microplus", "setting": "[3]; pour-on skin solutions, cattle", "value": "two"}
    ]}
  ]
}
